What is called IC50 is the concentration that gives 50% inhibition. A lower IC50 goes with inhibition by little substance.

The target in assay [1] is human A2a adenosine receptor (Homo sapiens (Human), UniProt P29274). Nature of the assay: A2a receptor affinity radioligand binding assay ([3H] SCH58261). To be noted: for IC50: membranes from HEK293 or CHO cells expressing human A2a receptor. Here is the method: The A2a receptor affinity binding assay measured the amount of binding of a tritiated ligand with high affinity for the A2a adenosine receptor to membranes made from HEK293 or CHO cells recombinantly expressing the human A2a adenosine receptor, in the presence of varying concentrations of a compound of the invention.
Chain of human A2a adenosine receptor (P29274 whole entry): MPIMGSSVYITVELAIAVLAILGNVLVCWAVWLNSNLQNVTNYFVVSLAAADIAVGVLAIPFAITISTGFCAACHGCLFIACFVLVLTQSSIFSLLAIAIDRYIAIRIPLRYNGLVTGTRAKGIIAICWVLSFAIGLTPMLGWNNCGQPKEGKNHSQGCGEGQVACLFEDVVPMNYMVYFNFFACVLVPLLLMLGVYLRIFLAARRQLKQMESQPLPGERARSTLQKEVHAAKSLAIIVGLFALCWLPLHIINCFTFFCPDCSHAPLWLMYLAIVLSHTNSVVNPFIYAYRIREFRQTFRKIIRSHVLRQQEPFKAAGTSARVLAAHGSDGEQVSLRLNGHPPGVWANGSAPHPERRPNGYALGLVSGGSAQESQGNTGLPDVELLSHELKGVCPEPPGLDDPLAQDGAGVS
Measurement of A2a Binding Affinity Using Radioligand Binding
148 μL (5 μg/mL) membranes (Perkin Elmer, Cat. No. RBHA2aM400UA) and 2 μL compounds of the invention to be tested (test compound) were transferred to individual wells of a 96-well polypropylene assay plate and incubated for 15 to 30 minutes at room temperature. [^3H] SCH58261 ((7-(2-phenylethyl)-5-amino-2-(2-furyl)-pyrazolo-[4,3-e]-1,2,4-triazolo[1,5-c]pyrimidine)) was diluted in assay buffer (50 mM Tris pH 7.4, 10 mM MgCl2, 0.005% Tween20) to a concentration of 4 nM and 50 μL transferred to each well of the assay plate. To define total and non-specific binding, wells containing 1% DMSO and 1 μM ZM241385 (Tocris Bioscience, Cat. No. 1036) respectively, were also included. The assay plate was incubated at room temperature for 60 minutes with agitation. Using a FilterMate Harvester® (Perkin Elmer), the contents of the assay plate were filtered through a UniFilter-96® PEI coated plate (Perkin Elmer Cat. No. 6005274 or 6005277). Filtering was achieved by aspirating the contents of the assay plate for 5 seconds, then washing and aspirating the contents three times with ice-cooled wash buffer (50 mM Tris-HCl pH 7.4, 150 mM NaCl) and allowing the vacuum manifold to dry the plate for 30 seconds. The filter plate was incubated for at least 1 hour at 55° C., and allowed to dry. The bottom of the filter plate was sealed with backing tape. 40 μL Ultima Gold™ (Perkin Elmer, Cat. No. 6013329) was added to each well of the filter plate and the top of the plate was sealed with TopSeal-A PLUS® clear plate seal (Perkin Elmer, Cat. No. 6050185). The plate was incubated for at least 20 minutes, and then the amount of radioactivity remaining in each well was determined using a TopCount® (Perkin Elmer) scintillation counter. After normalization to total and non-specific binding, the percent effect at each compound concentration was calculated. The plot of percent effect versus the log of compound concentration was analyzed electronically using a 4-parameter logistic fit based on the Levenberg-Marquardt algorithm to generate IC50 values.

In assay [2] the target is human A2b adenosine receptor (Homo sapiens (Human), UniProt P29275). Nature of the assay: A2b radioligand filtration binding assay. To be noted: for IC50: membranes from HEK293 cells expressing human A2b receptor. The protocol: Measurement of A2b Binding Affinity
Chain of human A2b adenosine receptor (P29275 whole entry): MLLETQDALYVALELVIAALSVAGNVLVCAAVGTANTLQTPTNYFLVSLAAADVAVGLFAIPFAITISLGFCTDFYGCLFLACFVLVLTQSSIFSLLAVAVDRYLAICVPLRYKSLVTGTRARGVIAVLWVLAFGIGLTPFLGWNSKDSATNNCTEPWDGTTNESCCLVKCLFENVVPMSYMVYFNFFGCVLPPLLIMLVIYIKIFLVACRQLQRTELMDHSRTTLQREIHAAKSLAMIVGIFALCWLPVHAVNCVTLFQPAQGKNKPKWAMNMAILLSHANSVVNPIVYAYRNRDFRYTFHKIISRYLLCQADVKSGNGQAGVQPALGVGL
The reported affinity of the compounds of the invention for the human A2b adenosine receptor was determined experimentally using a radioligand filtration binding assay. This assay measures the amount of binding of a tritiated proprietary A2b receptor antagonist, in the presence and absence of a compound of the invention, to membranes made from HEK293 cells recombinantly expressing the human A2b adenosine receptor (Perkin Elmer, Cat. No. ES-013-C).
148 μL (135 μg/mL) membranes and 2 μL test compounds were transferred to individual wells of a 96-well polypropylene assay plate and incubated for 15 to 30 minutes at room temperature with agitation. Tritiated radioligand was diluted to a concentration of 14 nM in assay buffer (phosphate buffered saline without Magnesium and Calcium, pH 7.4; GE Healthcare Life Sciences, Cat. No. SH30256.01) and then 50 μL of the solution were transferred to each well of the assay plate. To define total and non-specific binding, wells containing 1% DMSO and 20 μM N-ethylcarboxamidoadenosine (Tocris Bioscience, Cat. No. 1691) respectively, were also included. The wells of the assay plate were incubated at room temperature for 60 minutes with agitation, then filtered using a FilterMate Harvester® (Perkin Elmer) or similar equipment through a UniFilter-96® PEI coated plate (Perkin Elmer Cat. No. 6005274 or 6005277). Filtering was achieved by aspirating the contents of the assay plate for 5 seconds, then washing and aspirating the contents three times with ice-cooled wash buffer (assay buffer supplemented with 0.0025% Brij58) and allowing the vacuum manifold to dry the plate for 30 seconds. The filter plate was incubated for at least 1 hour at 55° C. and allowed to dry. The bottom of the filter plate was then sealed with backing tape. 40 μL Ultima Gold™ (Perkin Elmer, Cat. No. 6013329) was added to each well of the filter plate and the top of the plate was sealed with TopSeal-A PLUS® clear plate seal (Perkin Elmer, Cat. No. 6050185). The plates were then incubated for at least 20 minutes, and then the amount of radioactivity remaining in each well was determined using a TopCount® (Perkin Elmer) scintillation counter. After normalization to total and non-specific binding, the percent effect at each compound concentration was calculated. The plot of percent effect versus the log of compound concentration was analyzed electronically using a 4-parameter logistic fit based on the Levenberg-Marquardt algorithm to generate IC50 values.

With `COc1cc2nc(N)n3nc(C4CC(F)CN(c5cnn(CC(C)(C)O)c5)C4)nc3c2cc1F` (single isomer, unassigned) [Example 55, 1-(4-((3R,5S or 3S,5R)-3-(5-amino-9-fluoro-8-methoxy-[1,2,4]triazolo[1,5-c]quinazolin-2-yl)-5-fluoropiperidin-1-yl)-1H-pyrazol-1-yl)-2-methylpropan-2-ol], the IC50 in assay [1] turned out to be 10.6 nM; in assay [2], 500 nM.

Take `COc1cc2nc(N)n3nc(C4CC(F)CN(c5cnn(C6CCOCC6)c5)C4)nc3c2cc1F` (single isomer, unassigned) [Example 56, 9-fluoro-2-((3R,5S or 3S,5R)-5-fluoro-1-(1-(tetrahydro-2H-pyran-4-yl)-1H-pyrazol-4-yl)piperidin-3-yl)-8-methoxy-[1,2,4]triazolo[1,5-c]quinazolin-5-amine]: the half-inhibitory concentration (IC50) is 1.8 nM in assay [1] and 846 nM in assay [2].

In the case of `COc1cc2nc(N)n3nc(C45CC4CN(c4cnn(CC(C)(C)O)c4)C5)nc3c2cc1F` (single isomer, unassigned) [Example 58, 1-(4-((1R,5R or 1S,5S)-1-(5-amino-9-fluoro-8-methoxy-[1,2,4]triazolo[1,5-c]quinazolin-2-yl)-3-azabicyclo[3.1.0]hexan-3-yl)-1H-pyrazol-1-yl)-2-methylpropan-2-ol], the values for the half-inhibitory concentration (IC50) in assay [1] and in assay [2] were 13.6 nM and 136 nM, respectively.

With `COc1cc2nc(N)n3nc(C4CCCCN(c5cnn(CC(C)(C)O)c5)C4)nc3c2cc1F` (single isomer, unassigned) [Example 60, (R or S)-1-(4-(3-(5-amino-9-fluoro-8-methoxy-[1,2,4]triazolo[1,5-c]quinazolin-2-yl)azepan-1-yl)-1H-pyrazol-1-yl)-2-methylpropan-2-ol], the IC50 in assay [1] is 31.4 nM; in assay [2], 5860 nM.

On to `COc1cc2nc(N)n3nc(C4CCCCN(c5cnn(CC(C)(C)O)c5)C4)nc3c2cc1F` (single isomer, unassigned) [Example 61, (S or R)-1-(4-(3-(5-amino-9-fluoro-8-methoxy-[1,2,4]triazolo[1,5-c]quinazolin-2-yl)azepan-1-yl)-1H-pyrazol-1-yl)-2-methylpropan-2-ol], for which the IC50 was 5 nM in assay [1] and 99 nM in assay [2].

For the molecule `COc1cc2nc(N)n3nc(C4(F)CCN(c5cnn(CC(C)(C)O)c5)C4)nc3c2cc1F` (single isomer, unassigned) [Example 62, (R or S)-1-(4-(3-(5-amino-9-fluoro-8-methoxy-[1,2,4]triazolo[1,5-c]quinazolin-2-yl)-3-fluoropyrrolidin-1-yl)-1H-pyrazol-1-yl)-2-methylpropan-2-ol], the IC50 in assay [1] turned out to be 146 nM; in assay [2], 383 nM.

Turning to `COc1cc2nc(N)n3nc(C4(F)CCN(c5cnn(CC(C)(C)O)c5)C4)nc3c2cc1F` (single isomer, unassigned) [Example 63, (S or R)-1-(4-(3-(5-amino-9-fluoro-8-methoxy-[1,2,4]triazolo[1,5-c]quinazolin-2-yl)-3-fluoropyrrolidin-1-yl)-1H-pyrazol-1-yl)-2-methylpropan-2-ol], the half-maximal inhibitory concentration (IC50) in assay [1] was determined as 242 nM; in assay [2] it was 2430 nM.

As to `COc1cc2nc(N)n3nc([C@@H]4CCCN(c5ncn(C(C)C(C)(C)O)n5)C4)nc3c2cc1F` (single isomer, unassigned) [Example 64, (R or S)-3-(3-((R)-3-(5-amino-9-fluoro-8-methoxy-[1,2,4]triazolo[1,5-c]quinazolin-2-yl)piperidin-1-yl)-1H-1,2,4-triazolo-1-yl)-2-methylbutan-2-ol], the IC50 in assay [1] was 1 nM; in assay [2] it was 555 nM.

As for `COc1cc2nc(N)n3nc([C@@H]4CCCN(c5ncn(C(C)C(C)(C)O)n5)C4)nc3c2cc1F` (single isomer, unassigned) [Example 65, (S or R)-3-(3-((R)-3-(5-amino-9-fluoro-8-methoxy-[1,2,4]triazolo[1,5-c]quinazolin-2-yl)piperidin-1-yl)-1H-1,2,4-triazolo-1-yl)-2-methylbutan-2-ol], the 50% inhibitory concentration (IC50) stood at 1.2 nM in assay [1] and 228 nM in assay [2].

For `COc1cc2nc(N)n3nc(C4CN(c5cnn(CC(C)(C)O)c5)CCC4C)nc3c2cc1F` (single isomer, unassigned) [Example 66, 1-(4-((3S or 3R,4S or 4R)-3-(5-amino-9-fluoro-8-methoxy-[1,2,4]triazolo[1,5-c]quinazolin-2-yl)-4-methylpiperidin-1-yl)-1H-pyrazol-1-yl)-2-methylpropan-2-ol], the IC50 amounted to 0.6 nM in assay [1] and 957 nM in assay [2].

On to `COc1cc2nc(N)n3nc(C4CN(c5cnn(CC(C)(C)O)c5)CCC4C)nc3c2cc1F` (single isomer, unassigned) [Example 67, 1-(4-((3R or 3S,4R or 4S)-3-(5-amino-9-fluoro-8-methoxy-[1,2,4]methylpiperidin-1-yl)-1H-pyrazol-1-yl)-2-methylpropan-2-ol], for which the “A2A binding % Inh. @ 1000 nM” value in assay [1] (@ 1000 nM) was determined as 44% Inh. The “A2B binding % Inh. @ 10000 nM” value in assay [2] worked out at 31% Inh.

For `COc1cc(F)cc2c1nc(N)n1nc([C@@H]3C[C@H](F)CN(c4cnn(CC(C)(C)O)c4)C3)nc21` (single isomer, unassigned) [Example 68, 1-(4-((3R,5S or 3S,5R)-3-(5-amino-9-fluoro-7-methoxy-[1,2,4]triazolo[1,5-c]quinazolin-2-yl)-5-fluoropiperidin-1-yl)-1H-pyrazol-1-yl)-2-methylpropan-2-ol], in assay [1], the concentration for half-maximal inhibition (IC50) was determined as 181 nM. Moreover, the “A2B binding % Inh. @ 10000 nM” value in assay [2] is reported as 31% Inh.

On to `COc1cc(F)cc2c1nc(N)n1nc([C@H]3C[C@@H](F)CN(c4cnn(CC(C)(C)O)c4)C3)nc21` (single isomer, unassigned) [Example 69, 1-(4-((3S,5R or 3R,5S)-3-(5-amino-9-fluoro-7-methoxy-[1,2,4]triazolo[1,5-c]quinazolin-2-yl)-5-fluoropiperidin-1-yl)-1H-pyrazol-1-yl)-2-methylpropan-2-ol], for which the IC50 in assay [1] turned out to be 2.6 nM; in assay [2], 561 nM.

With `COc1cc(F)cc2c1nc(N)n1nc(C3CC(F)CN(c4cn(CC(C)(C)O)nc4C)C3)nc21` (single isomer, unassigned) [Example 70, 1-(4-((3R,5S or 3S,5R)-3-(5-amino-9-fluoro-7-methoxy-[1,2,4]triazolo[1,5-c]quinazolin-2-yl)-5-fluoropiperidin-1-yl)-3-methyl-1H-pyrazol-1-yl)-2-methylpropan-2-ol], the IC50 turned out to be 0.6 nM in assay [1] and 786 nM in assay [2].

For the molecule `COc1cc(F)cc2c1nc(N)n1nc(C3CC(F)CN(c4cn(CC(C)(C)O)nc4C)C3)nc21` (single isomer, unassigned) [Example 71, 1-(4-((3S,5R or 3R,5S)-3-(5-amino-9-fluoro-7-methoxy-[1,2,4]fltriazolo[1,5-c]quinazolin-2-yl)-5-fluoropiperidin-1-yl)-3-methyl-1H-pyrazol-1-yl)-2-methylpropan-2-ol], the IC50 in assay [1] came out at 35.6 nM. Besides, in assay [2], the “A2B binding % Inh. @ 10000 nM” value worked out at 43% Inh.

(Values after patent publication US11312719B2, “9-substituted amino triazolo quinazoline derivatives as adenosine receptor antagonists, pharmaceutical compositions and their use” (Merck Sharp & Dohme Corp., priority 2018, dated 2022).)
